Measurements published in patent publication US12077778B2, “Methods of generating human inner ear sensory epithelia and sensory neurons” (INDIANA UNIVERSITY RESEARCH AND TECHNOLOGY CORPORATION, priority 2015, dated 2024).
“Also recorded” adds a separate entry of the source.

Legend:
Assay type in all cases: cell-based, human
OEPD-induced aggregates = assay: qPCR of PAX8/PAX2 expression after WNT and FGF signaling modulation, days 8-10; details: one exploratory experiment
Protocol: Thus, we changed strategies by lengthening the initial culture phase to 12 days (with addition of fresh media on day 8) and testing the effect of transitioning the aggregates to Matrigel™ droplets.
Quantitative PCR. Analysis was performed as previously described on an ABI PRISM 7900HT Sequence Detection System (Applied Biosystems) or a Bio-Rad CFX96 quantitative PCR machine (Bio-Rad)^6. Data were normalized to L27 expression (internal control) and the fold change was calculated relative to Ct values from d0 WA25 aggregates using the ΔΔCt method. Unless stated otherwise, data represent at least 3 separate biological samples from separate experiments. All indicators of statistical significance refer to comparisons between a given condition and the control group. Refer to Table 4 for primer details.

WA25 cell aggregates = assay: Non-neural ectoderm induction in WA25 hESC aggregates (qPCR, immunostaining)
Protocol: Following a 2-day incubation in E8 Medium, we transferred aggregates to CDM containing a low concentration of Matrigel and FGF-2 to stimulate epithelization and ectoderm differentiation on the aggregate surface. […] Remarkably, 100% of SB treated aggregates generated TFAP2^+ E-cadherin (ECAD)^+ epithelium with a surface ectoderm-like morphology by days 4-6 of differentiation—a time scale consistent with human embryogenesis (n=15 aggregates, 3 experiments; FIGS. 1B-1E; FIGS. 3A-3G). Over a period of 20 days, the epithelium expanded into a cyst composed of TFAP2^+ Keratin-5 (KRT5)^+ keratinocyte-like cells (FIGS. 6A-6E). From these findings, we concluded that treating WA25 cell aggregates with SB is sufficient to induce a non-neural epithelium.
(§1) Curious whether endogenous BMP activity is sufficient for non-neural specification, we performed a co-treatment with the BMP inhibitor, LDN-193189 (hereafter, LSB; dual LDN/SB treatment referred to as LSB). […] We reasoned that variation in endogenous BMP levels may underlie the different outcomes and the BMP concentration may need to be fine-tuned for each cell line. […] With either the SB or SBB approaches, the resulting epithelia closely resembled […] generated with mPSCs^5,6. In contrast to our mouse culture, non-neural conversion occurs without off-target induction of Brachyury (BRA)^+ mesendoderm cells (FIGS. 9A-9C). The following data were generated using either the SB (WA25) or SBB (mND2-0) approaches.
hPSC differentiation. To start differentiation, hPSC cells were dissociated with StemPro Accutase (Invitrogen) and distributed, 5,000 cells per well, onto 96-well V-bottom plates in E8 medium containing 20 μM Y-27632 (Stemgent) and Normocin. […] CDM contained a 50:50 mixture of F-12 Nutrient Mixture with GlutaMAX (Gibco) and Iscove's Modified Dulbecco's Medium with GlutaMAX (IMDM; Gibco) additionally supplemented with 0.5% Bovine Serum Albumin (BSA), 1× Chemically Defined Lipid Concentrate (Invitrogen), […] (Sigma), 15 μg ml^−1 Transferrin (Sigma), 450 μM Mono-Thioglycerol, and Normocin (see Table 1 for a detailed formulation). […] For some experiments, CDM containing a 18 μM CHIR99021 (3 μM final concentration; Stemgent) was added to the pre-existing 125 μl of media in each well—we determined that this treatment is optional for inner ear organoid production, but may improve induction of otic placode-like cells. […]
Quantitative PCR. Analysis was performed as previously described on an ABI PRISM 7900HT Sequence Detection System (Applied Biosystems) or a Bio-Rad CFX96 quantitative PCR machine (Bio-Rad)^6. Data were normalized to L27 expression (internal control) and the fold change was calculated relative to Ct values from d0 WA25 aggregates using the ΔΔCt method. […]

mND2-0 iPSCs = assay: Non-neural ectoderm induction in mND2-0 iPSC aggregates
Excerpt: as §1
hPSC differentiation. To start differentiation, hPSC cells were dissociated with StemPro Accutase (Invitrogen) and distributed, 5,000 cells per well, onto 96-well V-bottom plates in E8 medium containing 20 μM Y-27632 (Stemgent) and Normocin. […] For some experiments, CDM containing a 18 μM CHIR99021 (3 μM final concentration; Stemgent) was added to the pre-existing 125 μl of media in each well—we determined that this treatment is optional for inner ear organoid production, but may improve induction of otic placode-like cells. […]

[1] = day 2, 10 μM SB, or 10 μM SB + 10 ng/ml BMP4 (SBB)

## CCN(CC)CCCCNc1ncc2cc(-c3cc(OC)cc(OC)c3)c(NC(=O)NC(C)(C)C)nc2n1 [PD-173074]
OEPD-induced aggregates
  PAX2 expression (qPCR) compared to DMSO controls: likely inhibits PAX2 expression

## NC(=O)c1ccc(-c2nc(-c3ccc4c(c3)OCO4)c(-c3ccccn3)[nH]2)cc1 [SB, SB-431542]
WA25 cell aggregates; 10 μM SB, days 4-6 of differentiation, n=15 aggregates, 3 experiments
  aggregates that generated TFAP2+ E-cadherin (ECAD)+ epithelium with surface ectoderm-like morphology: 100%
WA25 cell aggregates; [1]
  extraembryonic marker CDX2 expression (qPCR): no corresponding CDX2 expression
  non-neural marker genes TFAP2 and DLX3 expression (qPCR): upregulated; also recorded: increase in TFAP2 and DLX3 expression
mND2-0 iPSCs; mND2-0 iPSCs, day 6, 10 μM SB alone or with 2.5 ng/ml BMP4
  cell types generated (marker immunostaining): generated PAX6^+ neuroectoderm and TFAP2^+ ECAD^− neural crest-like cells

## Oc1nc(-c2ccc(C(F)(F)F)cc2)nc2c1CSCC2 [XAV939]
OEPD-induced aggregates
  PAX2 expression (qPCR) compared to DMSO controls: only had a modest positive or negative impact on PAX2 expression

B1: BMP4: recombinant human BMP4, agonist of BMP signaling (protein, UniProt P12644 293-408, looked up)
Bone morphogenetic protein 4: SPKHHSQRARKKNKNCRRHSLYVDFSDVGWNDWIVAPPGYQAFYCHGDCPFPLADHLNSTNHAIVQTLVNSVNSSIPKACCVPTELSAISMLYLDEYDKVVLKNYQEMVVEGCGCR
WA25 cell aggregates; day 2, BMP4 (B) treatment
  mesendoderm markers BRA and EOMES expression (qPCR): upregulated
mND2-0 iPSCs; mND2-0 iPSCs with SB, 1.25-40 ng/ml tested, preliminary experiment
  minimum BMP concentration that produced the morphological changes (translucent sphere): 2.5 ng/ml
